CC(=O)N[C@@H](CC(C)C)C(=O)O
solubility (mole fraction)
Settings	283.15 K	288.15 K	293.15 K	298.15 K	303.15 K	308.15 K	313.15 K	318.15 K	323.15 K
in acetone	0.00363	0.00434	0.00525	0.0062	0.00734	0.00886	0.0106	0.0124	0.0146
in acetonitrile	0.000712	0.000811	0.00114	0.00141	0.00163	0.00198	0.00249	0.00295	0.00335
in ethanol	0.0243	0.0278	0.0314	0.0353	0.0396	0.0456	0.0504	0.0567	0.0624
in ethyl acetate	0.00103	0.00127	0.0015	0.00178	0.00207	0.00243	0.0028	0.00328	0.00374
in isobutanol	0.0148	0.0176	0.0206	0.0242	0.0283	0.0328	0.0375	0.0425	0.0478
in isopropanol	0.0177	0.0206	0.0238	0.0274	0.0313	0.0354	0.0405	0.0464	0.0526
in methanol	0.0309	0.0357	0.0403	0.0456	0.0514	0.0589	0.066	0.0729	0.0824
in methyl acetate	0.00106	0.00134	0.00159	0.00191	0.00223	0.00259	0.0033	0.00396	0.00453
in n-butanol	0.017	0.0192	0.0221	0.0255	0.0291	0.0331	0.0379	0.0429	0.0489
in n-propanol	0.0196	0.0223	0.0251	0.0286	0.0329	0.0376	0.0424	0.0478	0.0541
in n-propyl acetate	0.00087	0.00107	0.00126	0.00149	0.00177	0.00211	0.00249	0.003	0.00357
in sec-butanol	0.0177	0.0207	0.0241	0.0279	0.0325	0.037	0.042	0.0473	0.0541

From BigSolDB 2.1
